From publication PMC10819570, “Design, Synthesis, and Biological Evaluation of 2-Substituted Aniline Pyrimidine Derivatives as Potent Dual Mer/c-Met Inhibitors” (Molecules, 2024)
“And” between values parts separate entries of the source, which are not always exact repeats. Identical values can stand only once.

What was measured:
[1] = target: c-Met kinase (Homo sapiens, UniProt P08581); assay: c-Met kinase inhibitory activity assay (in vitro); format: biochemical; settings: ATP 30 uM, enzyme 0.25 nM; means from three independent experiments
c-Met kinase, sequence (P08581 25-1390): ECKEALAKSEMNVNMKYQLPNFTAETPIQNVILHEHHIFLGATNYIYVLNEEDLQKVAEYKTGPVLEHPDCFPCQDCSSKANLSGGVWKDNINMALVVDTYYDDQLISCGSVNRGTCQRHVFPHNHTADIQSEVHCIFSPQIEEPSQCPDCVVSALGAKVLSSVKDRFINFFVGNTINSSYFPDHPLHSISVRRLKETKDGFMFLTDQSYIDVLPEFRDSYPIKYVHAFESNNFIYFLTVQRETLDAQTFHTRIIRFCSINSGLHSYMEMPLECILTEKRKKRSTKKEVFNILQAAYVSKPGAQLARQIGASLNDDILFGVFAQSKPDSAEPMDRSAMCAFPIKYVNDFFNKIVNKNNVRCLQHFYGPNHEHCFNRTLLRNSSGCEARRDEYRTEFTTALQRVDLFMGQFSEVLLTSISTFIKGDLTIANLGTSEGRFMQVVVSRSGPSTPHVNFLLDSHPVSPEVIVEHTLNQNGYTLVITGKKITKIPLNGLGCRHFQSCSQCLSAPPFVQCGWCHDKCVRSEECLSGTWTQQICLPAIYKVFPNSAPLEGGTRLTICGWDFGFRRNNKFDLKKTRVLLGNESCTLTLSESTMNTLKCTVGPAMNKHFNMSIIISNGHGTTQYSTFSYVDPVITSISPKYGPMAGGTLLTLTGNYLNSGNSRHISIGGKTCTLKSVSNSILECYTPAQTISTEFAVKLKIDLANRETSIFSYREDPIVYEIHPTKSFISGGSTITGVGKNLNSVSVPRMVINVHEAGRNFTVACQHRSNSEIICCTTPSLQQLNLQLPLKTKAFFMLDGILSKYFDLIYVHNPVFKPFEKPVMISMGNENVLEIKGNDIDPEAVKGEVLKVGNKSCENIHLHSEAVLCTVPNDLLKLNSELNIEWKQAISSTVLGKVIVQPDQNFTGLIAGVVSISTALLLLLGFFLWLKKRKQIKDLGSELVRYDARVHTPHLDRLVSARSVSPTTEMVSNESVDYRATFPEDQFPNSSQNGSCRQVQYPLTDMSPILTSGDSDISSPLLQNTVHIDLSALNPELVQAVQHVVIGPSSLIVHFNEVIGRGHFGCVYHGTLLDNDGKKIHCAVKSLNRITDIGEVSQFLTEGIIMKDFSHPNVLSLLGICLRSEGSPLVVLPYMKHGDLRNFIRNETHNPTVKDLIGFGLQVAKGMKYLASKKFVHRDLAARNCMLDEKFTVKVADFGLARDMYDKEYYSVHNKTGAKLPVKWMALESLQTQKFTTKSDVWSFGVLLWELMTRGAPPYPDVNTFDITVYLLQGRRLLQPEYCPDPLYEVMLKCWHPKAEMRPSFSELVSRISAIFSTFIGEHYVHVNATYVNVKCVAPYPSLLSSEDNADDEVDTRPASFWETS
Description: (§1) The in vitro inhibition assays of all final compounds against Mer and c-Met kinase were performed by Shanghai Bioduro Biological Technology Co., Ltd. (Shanghai, China). We prepared 1× buffer: HEPES 50 mM, MgCl2 10 mM, EGTA 1 mM, NP-40 0.0001%, DTT 2 mM; compound dilution with DMSO. For test compounds, a 100 × final concentration solution was prepared. About 100 nL compounds were transferred to a 384-well plate by using the automated liquid handler. The final DMSO% in the assay is 1%. Enzyme stock solutions were diluted with 1× assay buffer to a concentration of 0.5 nM to make a 2× working solution. […] Substrate solutions were diluted with 1× assay buffer. About 5 μL mix or buffer was added manually to the assay plate (ATP final 30 uM and TK-Sub-Biotin final 2 uM) using a multichannel pipette, spun down at 1000 rpm, and centrifuged for 30 s. After incubating at 30 °C for 60 min, 10 μL of detection solution was added to each well of the assay, mixed briefly with a centrifuge, and equilibrated for another 60 min. The luminescence was recorded using Envision.

[2] = target: T1, Mer kinase (Homo sapiens, UniProt Q12866); assay: Mer kinase inhibitory activity assay (in vitro); format: biochemical; settings: ATP 30 uM, enzyme 0.25 nM; means from three independent experiments
T1 sequence (Q12866 21-999): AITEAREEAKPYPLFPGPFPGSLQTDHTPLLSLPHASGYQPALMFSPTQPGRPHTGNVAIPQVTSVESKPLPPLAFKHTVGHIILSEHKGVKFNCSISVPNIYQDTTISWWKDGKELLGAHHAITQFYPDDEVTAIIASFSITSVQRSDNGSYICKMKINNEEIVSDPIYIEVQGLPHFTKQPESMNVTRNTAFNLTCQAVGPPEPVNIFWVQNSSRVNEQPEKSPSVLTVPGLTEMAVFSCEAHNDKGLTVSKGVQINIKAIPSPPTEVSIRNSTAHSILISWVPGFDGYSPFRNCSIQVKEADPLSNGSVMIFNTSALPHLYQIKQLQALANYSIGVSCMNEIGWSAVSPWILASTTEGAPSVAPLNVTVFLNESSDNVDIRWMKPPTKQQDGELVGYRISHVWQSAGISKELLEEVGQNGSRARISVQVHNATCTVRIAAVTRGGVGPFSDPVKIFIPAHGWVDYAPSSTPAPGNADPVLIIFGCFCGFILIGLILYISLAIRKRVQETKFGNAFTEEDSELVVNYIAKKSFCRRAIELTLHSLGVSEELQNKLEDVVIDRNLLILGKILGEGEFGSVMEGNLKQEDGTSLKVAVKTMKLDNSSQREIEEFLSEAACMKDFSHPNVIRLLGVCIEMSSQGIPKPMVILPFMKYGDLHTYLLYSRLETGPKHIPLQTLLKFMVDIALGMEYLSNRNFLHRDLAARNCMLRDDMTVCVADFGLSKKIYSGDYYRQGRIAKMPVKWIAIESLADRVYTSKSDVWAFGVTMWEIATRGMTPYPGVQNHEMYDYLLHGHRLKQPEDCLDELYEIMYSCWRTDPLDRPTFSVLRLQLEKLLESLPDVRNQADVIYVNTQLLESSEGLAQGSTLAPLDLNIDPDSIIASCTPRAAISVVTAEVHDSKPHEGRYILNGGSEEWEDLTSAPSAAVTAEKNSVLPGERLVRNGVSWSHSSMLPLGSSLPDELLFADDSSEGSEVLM
Description: as §1

[3] = Liver microsome stability assay; format: in vitro ADME; settings: pH 7.4, human liver microsomes 0.2 mg/mL, test compound 1 μM, NADPH; for microsomal CLint at 1 μM: read-out: CL Human; for half-life at 1 μM: read-out: T1/2 Human
Description: Stock solution (10 mM) of each of test compound was prepared in DMSO. The stock solution for each compound was then diluted into 200 μM with acetonitrile. Incubation mixtures were prepared in a total volume of 200 μL with final component concentrations as follows: 0.1 M PBS (pH 7.4), NADPH (2 mM), liver microsomes (0.2 mg/mL), and test compound (1 μM) or positive control. NAPDH was added after a 5 min preincubation of all other components at 37 °C, then pipette-mixed to achieve a homogenous suspension and immediately transferred 20 μL of the incubate as a 0 min sample to wells in a “Quenching” plate, followed by pipette-mixing. At 5, 15, 30, and 60 min, we pipette-mixed the incubate and serially transferred samples of 20 μL of the incubate per time point to wells in a separate “Quenching” plate, followed by pipette-mixing. In “Quenching” plates, 200 μL of acetonitrile was added with IS. The 96 wells were centrifuged at 4000 rpm for 10 min. Then 50 μL of supernatant was mixed with 50 μL of ddH2O and injected into the LC-MS/MS system for analysis.

[4] = system: HepG2 cells; assay: Antiproliferation assay (CCK-8), HepG2; format: cell-based; settings: Homo sapiens, HepG2; CCK-8, 72 h; read-out: IC50 antiproliferative HepG2
Description: (§2) The antiproliferative activities of the compounds against HepG2, MDA-MB-231, and HCT116 cell lines were tested by the standard CCK-8 method. Cell viability was measured by Cell Counting Kit-8 (Meilunbio, Dalian, China) according to the manufacturer’s instructions. Briefly, cancer cells were seeded into 96-well plates at a density of 2.5 × 10^3 cells per well. […] Subsequently, CCK-8 solution was added into each well and incubated for an additional 2 h. The absorbance at 450 nm was determined in each well using the BioTek Synergy HTX microplate reader. The assay was performed in triplicate, and each experiment was repeated three times.

[5] = system: MDA-MB-231 cells; assay: Antiproliferation assay (CCK-8), MDA-MB-231; format: cell-based; settings: Homo sapiens, MDA-MB-231; CCK-8, 72 h; read-out: IC50 antiproliferative MDA-MB0231
Description: as §2

[6] = system: HCT116 cells; assay: Antiproliferation assay (CCK-8), HCT116; format: cell-based; settings: Homo sapiens, HCT-116; CCK-8, 72 h; read-out: IC50 antiproliferative HCT116
Description: as §2, with “Cell” for “The antiproliferative activities of the compounds against HepG2, MDA-MB-231, and HCT116 cell lines were tested by the standard CCK-8 method. Cell”

Molecule `Cc1c(C(=O)Nc2ccc(Oc3ccnc(Nc4ccc(NC(=O)CN5CCN(C)CC5)c(F)c4)n3)cc2)c(=O)n(-c2ccccc2)n1C` [Compound 14h] has an IC50 [1] of 74.9 ± 12.2 nM and an IC50 [2] of 12.5 ± 2 nM.
Molecule `COCCNc1ccc(Nc2nccc(Oc3ccc(NC(=O)C4(C(=O)Nc5ccc(F)cc5)CC4)cc3)n2)cc1` [Compound 18e] has an IC50 [1] of 77.3 ± 13.1 nM and an IC50 [2] of 159 ± 17.4 nM.
For `CN1CCN(CC(=O)Nc2ccc(Nc3nccc(Oc4ccc(NC(=O)C5(C(=O)Nc6ccc(F)cc6)CC5)cc4)n3)cc2F)CC1` [Compound 18l], the microsomal CLint at 1 μM [3] was 360 µL/min/mg, the half-life at 1 μM [3] was 9.6 min and the IC50 [1] was 48.7 ± 8.2 nM. The IC50 [2] was 18.3 ± 2.7 nM.
With `O=C(NCCCN1CCOCC1)c1ccc(Nc2nccc(Oc3ccc(NC(=O)C4(C(=O)Nc5ccc(F)cc5)CC4)cc3)n2)cc1` [Compound 18d] the IC50 [1] was 52.7 ± 8.5 nM and the IC50 [2] was 42.4 ± 5.8 nM.
`CC(C)N1CCN(CC(=O)Nc2ccc(Nc3nccc(Oc4ccc(NC(=O)C5(C(=O)Nc6ccc(F)cc6)CC5)cc4)n3)cc2)CC1` [Compound 18h] showed an IC50 [1] of 42.6 ± 8.1 nM and an IC50 [2] of 12.4 ± 1.9 nM.
In the case of `Cc1c(C(=O)Nc2ccc(Oc3ccnc(Nc4ccc(NC(=O)CN5CCN(C)CC5)cc4)n3)cc2)c(=O)n(-c2ccccc2)n1C` [Compound 14b], the IC50 [1] is reported as 179 ± 25.2 nM and the IC50 [2] is reported as 9.6 nM and 9.4 nM.
In the case of `Cc1c(C(=O)Nc2ccc(Oc3ccnc(Nc4ccc(C(=O)NCCCN5CCOCC5)cc4)n3)cc2)c(=O)n(-c2ccccc2)n1C` [Compound 14a], the IC50 [1] is reported as 151 ± 22.6 nM and the IC50 [2] is reported as 8.1 nM and 7.9 nM.
With `O=C(Nc1ccc(F)cc1)C1(C(=O)Nc2ccc(Oc3ccnc(Nc4ccc(CCC(O)c5ccccc5)cc4)n3)cc2)CC1` (stereo not drawn) [Compound 18f] the IC50 [1] was > 1000 nM and the IC50 [2] was 463 ± 55.4 nM.
Molecule `CC(=O)N1CCN(c2ccc(Nc3nccc(Oc4ccc(NC(=O)C5(C(=O)Nc6ccc(F)cc6)CC5)cc4)n3)cc2)CC1` [Compound 18a] has an IC50 [1] of 15.4 ± 1.4 nM and an IC50 [2] of 85.3 ± 6.8 nM.
With `COc1cc2nccc(Oc3ccc(NC(=O)C4(C(=O)Nc5ccc(F)cc5)CC4)cc3)c2cc1OC` [Cabozantinib, reference compound] the IC50 [4] was 1720 nM, the IC50 [5] was 29 µM and the IC50 [6] was 7.82 µM.
For `Cc1c(C(=O)Nc2ccc(Oc3ccnc(Nc4cccc(NC(=O)CN5CCN(C)CC5)c4)n3)cc2)c(=O)n(-c2ccccc2)n1C` [Compound 14d], the IC50 [1] was 144 ± 17.3 nM and the IC50 [2] was 24.2 ± 2.6 nM.
`CCN1CCN(CC(=O)Nc2ccc(Nc3nccc(Oc4ccc(NC(=O)C5(C(=O)Nc6ccc(F)cc6)CC5)cc4)n3)cc2)CC1` [Compound 18g] showed an IC50 [1] of 48.7 ± 8.7 nM and an IC50 [2] of 20.3 ± 3.2 nM.
Molecule `CC(=O)N1CCN(CC(=O)Nc2ccc(Nc3nccc(Oc4ccc(NC(=O)C5(C(=O)Nc6ccc(F)cc6)CC5)cc4)n3)cc2)CC1` [Compound 18j] has an IC50 [1] of 32.8 ± 5.8 nM and an IC50 [2] of 57.5 ± 9.4 nM.
Work on `O=C(CN1CCN(CC2CC2)CC1)Nc1ccc(Nc2nccc(Oc3ccc(NC(=O)C4(C(=O)Nc5ccc(F)cc5)CC4)cc3)n2)cc1` [Compound 18i] yielded an IC50 [1] of 77.1 ± 15.2 nM and an IC50 [2] of 30.9 ± 5.3 nM.
Molecule `CN1CCN(CC(=O)N(C)c2ccc(Nc3nccc(Oc4ccc(NC(=O)C5(C(=O)Nc6ccc(F)cc6)CC5)cc4)n3)cc2)CC1` [Compound 18m] has an IC50 [1] of 74.4 ± 13.5 nM and an IC50 [2] of 126 ± 17.8 nM.
With `Cc1c(C(=O)Nc2ccc(Oc3ccnc(Nc4ccc(NS(=O)(=O)c5ccccc5)cc4)n3)cc2)c(=O)n(-c2ccccc2)n1C` [Compound 14c] the IC50 [1] was > 1000 nM and the IC50 [2] was 166 ± 21.6 nM.
`C[C@]12CC[C@H]3[C@@H](CCC4=CC(=O)CC[C@@]43C)[C@@H]1CC[C@@H]2O` [Testosterone, reference compound] gave a half-life at 1 μM [3] of 32.1 min.
Molecule `CN1CCN(CC(=O)Nc2ccc(Nc3nccc(Oc4ccc(NC(=O)C5(C(=O)Nc6ccc(F)cc6)CC5)cc4)n3)cc2C#N)CC1` [Compound 18k] has an IC50 [1] of 51.2 ± 8 nM and an IC50 [2] of 10.2 ± 1.4 nM.
For `O=C(Nc1ccc(F)cc1)C1(C(=O)Nc2ccc(Oc3ccnc(Nc4ccc(NS(=O)(=O)c5ccccc5)cc4)n3)cc2)CC1` [Compound 18b], the IC50 [1] was 941 ± 65.9 nM and the IC50 [2] was > 10000 nM.
`CN1CCN(CC(=O)Nc2cccc(Nc3nccc(Oc4ccc(NC(=O)C5(C(=O)Nc6ccc(F)cc6)CC5)cc4)n3)c2)CC1` [Compound 18o] gave a microsomal CLint at 1 μM [3] of 400 µL/min/mg, a half-life at 1 μM [3] of 8.6 min and an IC50 [1] of 39.8 ± 6.6 nM. The IC50 [2] was 24.8 ± 3.3 nM.
With `Cc1c(C(=O)Nc2ccc(Oc3ccnc(Nc4cccc(C(=O)NCCCN5CCOCC5)c4)n3)cc2)c(=O)n(-c2ccccc2)n1C` [Compound 14e] the IC50 [1] was 321 ± 25.6 nM and the IC50 [2] was 40.3 ± 3.6 nM.
`CC(C(=O)Nc1ccc(Nc2nccc(Oc3ccc(NC(=O)C4(C(=O)Nc5ccc(F)cc5)CC4)cc3)n2)cc1)N1CCN(C)CC1` (stereo not drawn) [Compound 18n] gave a microsomal CLint at 1 μM [3] of 290 µL/min/mg, a half-life at 1 μM [3] of 11.9 min and an IC50 [1] of 30.7 ± 4.8 nM. It also gave an IC50 [2] of 31.6 ± 5.4 nM.
With `Cc1c(C(=O)Nc2ccc(Oc3ccnc(Nc4ccc(NC(=O)CN5CCN(C)CC5)c(C#N)c4)n3)cc2)c(=O)n(-c2ccccc2)n1C` [Compound 14g] the IC50 [1] was 89.4 ± 12.6 nM and the IC50 [2] was 7.1 ± 0.9 nM.
`Cc1c(C(=O)Nc2ccc(Oc3ccnc(Nc4ccc(N(C)C(=O)CN5CCN(C)CC5)cc4)n3)cc2)c(=O)n(-c2ccccc2)n1C` [Compound 14i] showed an IC50 [1] of 224 ± 24.6 nM and an IC50 [2] of 97.1 ± 12.7 nM.
